Data as given in patent US5068247A, “2-aminopentanoic acid compounds and their use as immunosuppressants” (priority 1989, dated 1991).
≈ marks a conversion by molar mass, not a printed value.

Key:
Type in all cases: cell-based
[1] = system: mouse allogenic MLR (BALB/c mouse spleen cells stimulated with C57BL/6 mouse spleen cells); experiment: mouse allogenic mixed lymphocyte reaction (MLR), 3H-thymidine uptake
Summary of the method: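 BALB/c responder spleen cells were mixed in equal amounts with mitomycin C-treated (40 μg/ml, 60 min, 37 °C) C57BL/6 stimulator spleen cells, each at 10^7 cells/ml in RPMI1640 with 20% FCS and 10^-4 M 2-mercaptoethanol. Blastogenesis was read as 3H-thymidine uptake (18.5 KBq/well, 4 h) after culture and expressed as % suppression. Compounds were dissolved in methanol, then diluted in medium.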

[2] = system: IL-2 production in PHA-stimulated mouse spleen cells; experiment: suppression of IL-2 production in PHA-stimulated mouse spleen cells
Method: (§1) The suppression of IL-2 and IL-3 production in the mitogen-stimulated mouse spleen cells was examined as follows:
(§2) The spleen was resected from 5- to 8-week-old male C3H/HeN mice, and a single cell suspension of spleen cells was prepared by using the RPMI1640 culture medium. After hemolytic treatment, the concentration of the suspension was adjusted to 10^7 cells/ml by using the RPMI1640 culture medium supplemented with 20% FCS, to which 10 μg/ml of phytohemagglutinin (PHA) was added as mitogen. […] After termination of culture, the supernatant was collected and used as the culture supernatant of PHA-stimulated mouse spleen cells.
The IL-2 activity in the culture supernatant of PHA-stimulated mouse spleen cells was assayed as follows:
IL-2 dependent mouse cell line CTLL-2 cells were suspended in the RPMI1640 culture medium supplemented with 30% FCS to the concentration of 2×10^5 cells/ml. One hundred μl of the cell suspension and 100 μl of the two-fold serial dilution of the culture supernatant of PHA-stimulated mouse spleen cells were added to a 96-well flat-bottomed microtest plate. […] The IL-2 activity is expressed in U/ml as the dilution at which the absorbancy measured by MTT method was 50% of the maximum.

CTLL-2 cells = experiment: suppression of proliferation of IL-2-dependent mouse cell line CTLL-2 induced by IL-2; settings: IL-2 50 U/ml, Table 6A
Method: IL-2-dependent mouse cell line CTLL-2 cells were suspended in the RPMI1640 culture medium supplemented with 30% FCS to the concentration of 4×10^5 cells/ml. Fifty μl of the cell suspension, 50 μl of 200 U/ml recombinant human IL-2 (rhIL-2) and 100 μl of the test substance were added to a 96-well flat-bottomed microtest plate. […] The percent suppression (%) was calculated by the following formula. [formula]

[3] = system: IL-3 production in PHA-stimulated mouse spleen cells; experiment: suppression of IL-3 production in PHA-stimulated mouse spleen cells
Method: as §1, §2
The IL-3 activity was assayed as follows:
IL-3-dependent mouse cell line FDC-P2 cells were suspended in the RPMI1640 culture medium supplemented with 10% FCS to the concentration of 2×10^5 cells/ml. One hundred μl of the cell suspension and 100 μl of the two-fold serial dilution of the culture supernatant of PHA-stimulated mouse spleen cells described above were added to a 96-well flat-bottomed microtest plate. […] The IL-3 activity is expressed in U/ml as the dilution at which the absorbancy measured by MTT method was 50% of the maximum.

[4] = Mus musculus, 24 h, 0.001 μg/ml, read-out: Suppression
[5] = Mus musculus, 24 h, 0.01 μg/ml, read-out: Suppression
[6] = Mus musculus, 24 h, 0.1 μg/ml, read-out: Suppression
[7] = Mus musculus, 24 h, 1 μg/ml, read-out: Suppression

Q: Which results are given for `CCCCCCC(O)C=CCCCCC=CCC(O)C(O)C(N)(CO)C(=O)O` (centres unmarked) [Example 1]?
A: 3H-thymidine uptake ([1]; 0.0001 μg/ml, Table 1A): 17985 cpm; 3H-thymidine uptake ([1]; 0.001 μg/ml, Table 1A): 13566 cpm; 3H-thymidine uptake ([1]; 0.01 μg/ml, Table 1A): 11016 cpm; 3H-thymidine uptake ([1]; 0.1 μg/ml, Table 1A): 1020 cpm; 3H-thymidine uptake ([1]; 1 μg/ml, Table 1A): 919 cpm; inhibition at 0.0001 µg/mL ([1]; Mus musculus, Lymphocyte, 0.0001 μg/ml, Table 1A, read-out: Suppression): 2.7%; inhibition at 0.001 µg/mL ([1]; Mus musculus, Lymphocyte, 0.001 μg/ml, Table 1A, read-out: Suppression): 29%; inhibition at 0.01 µg/mL ([1]; Mus musculus, Lymphocyte, 0.01 μg/ml, Table 1A, read-out: Suppression): 44.1%; inhibition at 0.1 µg/mL ([1]; Mus musculus, Lymphocyte, 0.1 μg/ml, Table 1A, read-out: Suppression): 100%; inhibition at 1 µg/mL ([1]; Mus musculus, Lymphocyte, 1 μg/ml, Table 1A, read-out: Suppression): 100%; IC50 ([1]; Mus musculus, Lymphocyte, read-out: 50%-inhibition concentration (IC50) in mouse allogenic MLR): 0.013 µg/mL (≈ 0.0324 µM); IL-2 activity ([2]; 0.001 μg/ml): 13.9 U/ml; IL-2 activity ([2]; 0.01 μg/ml): 6.1 U/ml; IL-2 activity ([2]; 0.1 μg/ml): 3.7 U/ml; IL-2 activity ([2]; 1 μg/ml): 2.0 U/ml; inhibition at 0.001 µg/mL [2, 4]: 0%; inhibition at 0.01 µg/mL [2, 5]: 49.6%; inhibition at 0.1 µg/mL [2, 6]: 69.4%; inhibition at 1 µg/mL [2, 7]: 83.5%; optical density (OD570) (CTLL-2 cells; 0.001 μg/ml): 0.508; optical density (OD570) (CTLL-2 cells; 0.01 μg/ml): 0.556; optical density (OD570) (CTLL-2 cells; 0.1 μg/ml): 0.009; optical density (OD570) (CTLL-2 cells; 1 μg/ml): 0.005; inhibition at 0.001 µg/mL (CTLL-2 cells; Mus musculus, CTLL-2, 68 h, 0.001 μg/ml, read-out: Suppression): 13.3%; inhibition at 0.01 µg/mL (CTLL-2 cells; Mus musculus, CTLL-2, 68 h, 0.01 μg/ml, read-out: Suppression): 5.1%; inhibition at 0.1 µg/mL (CTLL-2 cells; Mus musculus, CTLL-2, 68 h, 0.1 μg/ml, read-out: Suppression): 98.6%; inhibition at 1 µg/mL (CTLL-2 cells; Mus musculus, CTLL-2, 68 h, 1 μg/ml, read-out: Suppression): 99.3%; IL-3 activity ([3]; 0.001 μg/ml): 34.3 U/ml; IL-3 activity ([3]; 0.01 μg/ml): 27.9 U/ml; IL-3 activity ([3]; 0.1 μg/ml): 12.2 U/ml; IL-3 activity ([3]; 1 μg/ml): 10.5 U/ml; inhibition at 0.001 µg/mL [3, 4]: 6.8%; inhibition at 0.01 µg/mL [3, 5]: 24.2%; inhibition at 0.1 µg/mL [3, 6]: 66.8%; inhibition at 1 µg/mL [3, 7]: 71.5%
